Measured values reported in publication PMC11434749, “In Vitro Interaction of Binuclear Copper Complexes with Liver Drug-Metabolizing Cytochromes P450” (Pharmaceuticals, 2024).

Experiments:
CYP2B6 = target: T1, CYP2B6 (Homo sapiens, UniProt P20813); test: Inhibition of CYP2B6 activity (EFC O-deethylation) in human liver microsomes; format: in vitro ADME; settings: HLM, EFC 15 µmol·L^−1, preincubation 30 min at 37 °C, Mean ± S.D.
T1 construct: Pooled human liver microsomes were obtained from Biopredic (Rennes, France); tissue Biopredic (Rennes, France); host or cells: pooled human liver microsomes, seventeen donors
T1 sequence (P20813 1-491): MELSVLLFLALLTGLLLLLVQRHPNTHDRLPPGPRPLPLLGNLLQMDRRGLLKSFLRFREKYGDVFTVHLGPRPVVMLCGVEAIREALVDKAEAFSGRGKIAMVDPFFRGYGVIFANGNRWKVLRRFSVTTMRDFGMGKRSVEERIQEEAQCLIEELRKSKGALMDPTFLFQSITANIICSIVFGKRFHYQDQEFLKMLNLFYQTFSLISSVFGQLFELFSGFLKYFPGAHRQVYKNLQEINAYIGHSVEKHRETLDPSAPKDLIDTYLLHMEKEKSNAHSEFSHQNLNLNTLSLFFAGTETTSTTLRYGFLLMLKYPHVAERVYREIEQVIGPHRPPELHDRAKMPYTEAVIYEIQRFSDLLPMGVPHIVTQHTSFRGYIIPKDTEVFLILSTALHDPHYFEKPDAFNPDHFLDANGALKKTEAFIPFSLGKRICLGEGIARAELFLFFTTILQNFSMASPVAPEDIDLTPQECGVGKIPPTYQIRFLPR
Procedure: (§1) The following enzyme assays were performed to determine the activities of specific CYP enzymes: CYP1A2, 7-ethoxyresorufin O-deethylation; CYP2A6, coumarin 7-hydroxylation; CYP2B6, 7-ethoxy-4-(trifluoromethyl) coumarin (EFC) O-deethylation; CYP2C8 paclitaxel 6α-hydroxylation; CYP2C9, diclofenac 4′-hydroxylation; CYP2C19, diazepam N-desmethylation; CYP2D6, bufuralol 1′-hydroxylation; CYP2E1, chlorzoxazone 6-hydroxylation; and CYP3A4/5, testosterone 6β-hydroxylation. […]
(§2) For the determination of metabolites formed from specific substrates, a Prominence LC-20A HPLC system (Shimadzu, Kyoto, Japan) with UV detection or fluorescence detection was used (see Table 2). […]
(§3) Initially, for each enzyme assay, a preliminary experiment was carried out to determine Km and Vmax to obtain the appropriate concentration of the specific substrates for the inhibition experiments (the substrate concentration was chosen in the range corresponding to the value of the Km for each particular reaction). Data were analyzed using the Sigma plot software, as mentioned above, with spectral studies. […] In all cases, the inhibition of individual CYP activities was evaluated by plotting the respective remaining activity against the inhibitor concentration.

CYP2C8 = target: T2, CYP2C8 (Homo sapiens, UniProt P10632); test: Inhibition of CYP2C8 activity (paclitaxel 6α-hydroxylation) in human liver microsomes; format: in vitro ADME; settings: HLM, paclitaxel 50 µmol·L^−1, preincubation 30 min at 37 °C, Mean ± S.D.
T2 construct: Pooled human liver microsomes were obtained from Biopredic (Rennes, France); tissue Biopredic (Rennes, France); host or cells: pooled human liver microsomes, seventeen donors
T2 sequence (P10632 1-490): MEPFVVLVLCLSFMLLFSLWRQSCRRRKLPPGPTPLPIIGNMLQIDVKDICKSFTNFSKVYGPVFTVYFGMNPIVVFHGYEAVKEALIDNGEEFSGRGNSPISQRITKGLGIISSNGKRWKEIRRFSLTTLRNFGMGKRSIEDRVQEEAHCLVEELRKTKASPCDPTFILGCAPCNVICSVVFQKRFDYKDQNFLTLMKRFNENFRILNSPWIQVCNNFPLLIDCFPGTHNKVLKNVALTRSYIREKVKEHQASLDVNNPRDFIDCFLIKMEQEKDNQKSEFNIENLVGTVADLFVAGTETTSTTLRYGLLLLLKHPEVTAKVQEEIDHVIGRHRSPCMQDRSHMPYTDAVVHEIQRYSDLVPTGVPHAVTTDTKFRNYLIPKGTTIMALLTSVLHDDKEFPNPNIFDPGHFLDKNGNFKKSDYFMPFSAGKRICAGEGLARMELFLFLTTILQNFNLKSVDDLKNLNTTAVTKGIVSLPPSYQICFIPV
Procedure: as §1, §2, §3

HLM CYP enzymes = test: Spectral study (binding difference spectra) of the interaction with HLM CYP enzymes; design: species or system human; settings: for Kd: HLM, CYP 1 µmol·L^−1 in 50 mmol·L^−1 potassium phosphate buffer pH 7.4, absorbance change at about 417 nm, room temperature, read-out: spectroscopic binding constant (KS); for mode of binding to HLM CYP enzymes (difference spectra): maximum at about 380 nm, minimum at about 417 nm (Type I binding spectra)
Description: Spectral studies in the Soret region were used to detect the substrate-induced difference spectra of human liver microsomal (HLM) CYPs. […] The spectral change corresponds to the formation of a maximum formed at about 380 nm and a minimum at about 417 nm (Figure 2). The values of the corresponding spectroscopic binding constant (KS) for the tested compounds were 39.50 ± 10.06 µmol·L^−1 and 44.86 ± 9.88 µmol·L^−1, respectively. These values indicate the relatively specific binding of these complexes on CYPs.
Figure 2 Spectral determination of the interaction between tested complexes No. 5 (a) and No. 6 (b) and CYP in HLM. […] The concentration of CYP in microsomal preparation, 1 µmol·L^−1 in 50 mmol·L^−1 potassium phosphate buffer (pH 7.4).
The binding difference spectra of the interactions of complex No. 5 and complex No. 6 with microsomal CYP enzymes were followed according to established procedures. The cuvette contained HLM that was diluted to a final concentration of CYP 1 µmol·L^−1 in 50 mmol·L^−1 potassium phosphate buffer (pH 7.4). The tested compounds were dissolved in the same buffer, and the concentration ranges in experiments were 0–183 µmol·L^−1, obtained by diluting a 5 mmol·L^−1 stock solution. Spectra were recorded at room temperature by repetitive scanning between 300 and 700 nm at a scan speed of 200 nm/s. The baseline of the reference cuvette contained HLM diluted to the final concentration of CYP 1 µmol·L^−1 in 50 mmol·L^−1 potassium buffer (pH 7.4). Spectra were recorded on a Varian 4000 UV/VIS spectrophotometer (Varian, Palo Alto, CA, USA). The absorbance change at about 417 nm was plotted against the concentration of the tested compounds. Data were analyzed using the Sigma Plot v. 8.0 graphing software (Jandel Scientific, Chicago, IL, USA).

P. aeruginosa = test system: P. aeruginosa; design: method as in doi:10.1016/j.ica.2022.121273; settings: Gram-negative; cited from earlier work

Row | Structure (SMILES) | IC50 (CYP2B6) [µM] | IC50 (CYP2C8) [µM] | Kd (HLM CYP enzymes) [µM] | mode of binding to HLM CYP enzymes (difference spectra) (HLM CYP enzymes) | MIC P. aeruginosa (P. aeruginosa) [µg/mL]
1 | CN(C)CCN(C)CCN(C)C.CN(C)CCN(C)CCN(C)C.O.O.O=C([O-])CCSSCCC(=O)[O-].[Cu+2].[Cu+2].[O-][Cl+3]([O-])([O-])[O-].[O-][Cl+3]([O-])([O-])[O-] [Complex No. 6, [Cu2(μ-dtdp)(pmdien)2(H2O)2](ClO4)2] | 13.3 ± 0.54 | 3.4 ± 0.1 | 44.9 ± 9.88 | bind to HLM CYP enzymes as substrates | 1.05
2 | CN(C)CCN(C)CCN(C)C.CN(C)CCN(C)CCN(C)C.O.O.O=C([O-])/C=C/C(=O)[O-].[Cu+2].[Cu+2].[O-][Cl+3]([O-])([O-])[O-].[O-][Cl+3]([O-])([O-])[O-] [Complex No. 5, [Cu2(μ-fu)(pmdien)2(H2O)2](ClO4)2] | 24.8 ± 0.33 | 3.66 ± 0.19 | 39.5 ± 10.1 | bind to HLM CYP enzymes as substrates | 2.11
